Test results as given in patent US7598029B2, “Method for identifying HIV-1 protease inhibitors with reduced metabolic affects” (Bristol-Myers Squibb Company, priority 2006, dated 2009).
Each block holds one molecule with its values, some of them ahead of it.

Key:
[1] = human, in vivo; cited from earlier work
cathepsin D = molecular target: T1, cathepsin D (Homo sapiens, UniProt P07339); experiment: Protease digestion of resistin by cathepsin D with HIV-1 protease inhibitors, SDS-PAGE; assay type: biochemical; conditions: for inhibition of cleavage of resistin by cathepsin D: 1 ug alkylated and reduced resistin, 0.1 ug cathepsin D
T1 construct: purchased R&D Systems Inc
Protocol: (§1) Atazanavir was synthesized by and provided in pure form from the Chemistry Division of Bristol-Myers Squibb Co. All compounds were dissolved in 100% DMSO (Sigma). The final concentration of DMSO was 0.2% in experiments that included a protease inhibitor.
(§2) Recombinant Proteins: Recombinant human and mouse resistin were obtained from Santa Cruz Biotech. Recombinant cathepsin D and cathepsin E were obtained from R&D Systems Inc. Recombinant HIV-1 protease was obtained from Protein One. Recombinant renin was obtained from Cayman Chemical and recombinant trypsin was from Promega.
(§3) Alkylation/Reduction of Cysteine Residues: Lyophilized resistin (24 micrograms) was resuspended in 50 ul of fresh UA buffer (8 M urea, 0.4 M ammonium bicarbonate) and 5 ul of 45 mM DTT. The mixture was then incubated at 50° C. for 15 min, followed by addition of 5 ul of 0.1 M iodoacetamide. The reaction was then incubated for an additional 15 min in the dark at room temperature, followed by the addition of 140 ul of H20.
(§4) Preparation of Proteases: Lyophilized cathepsin D (10 ug) was resuspended in 100 ul H20. Cathepsin D was activated prior to use by incubating at 20 ng/ul in CathD buffer (100 mM NaOAc, 200 mM NaCl, pH 4.7) for 30 min at 37° C. Lyophilized cathepsin E (10 ug) was resuspended in 100 ul of reconstitution buffer (25 mM MES, 0.15 M NaCl, pH 6.5). Cathepsin E was activated prior to use by incubating at 20 ng/ul in CathE buffer (100 mM NaOAc, 100 mM NaCl, pH 4.7) for 30 min at room temperature. Renin was diluted to 20 ng/ul in renin buffer (50 mM Tris-HCl, pH 8, 100 mM NaCl) prior to use. Lyophilized trypsin (20 ug) was resuspended in 500 ul reconstitution buffer provided by the manufacturer (Promega). Trypsin was activated prior to use by incubating for 15 min at 30° C. HIV-1 protease was used directly from the manufacturer.
(§5) Protease Digestion Experiments: In all protease digestion reactions, 1 ug of alkylated and reduced resistin was incubated with either 1 ug HIV-1 protease, 0.1 ug cathepsin D, 0.1 ug cathepsin E or 0.1 ug trypsin. HIV-1 protease digestion was performed in HIV-1 PR buffer (50 mM MES (pH 6), 100 mM NaCl). Trypsin digestion was performed in TE buffer (10 mM Tris (pH 8), 0.1 mM EDTA (pH 8)). The respective reaction buffers for cathepsin D, cathepsin E and renin are listed above under “Preparation of proteases”. […] All protease digestion experiments were incubated for 24 hr at 37° C. with the exception of experiments containing cathepsin E, which were incubated at room temperature. Reactions were quenched in LDS loading dye (Invitrogen) containing reducing agent (Invitrogen). Reactions were subsequently heated at 70° C. for 5 min prior analysis by SDS-PAGE.
(§6) SDS-PAGE Analysis: Cleavage products were resolved using 4-12% Bis-Tris NUPAGE® Gels (Invitrogen). Gels were run at 200 V for 20 min in MES buffer. Protein bands were visualized by staining with Gel Code reagent (Pierce).

cathepsin E = molecular target: T2, cathepsin E (Homo sapiens, UniProt P14091); experiment: Protease digestion of resistin by cathepsin E with HIV-1 protease inhibitors, SDS-PAGE; assay type: biochemical; conditions: for inhibition of cleavage of resistin by cathepsin E: 1 ug alkylated and reduced resistin, 0.1 ug cathepsin E
T2 construct: purchased R&D Systems Inc
T2 sequence (P14091 54-396): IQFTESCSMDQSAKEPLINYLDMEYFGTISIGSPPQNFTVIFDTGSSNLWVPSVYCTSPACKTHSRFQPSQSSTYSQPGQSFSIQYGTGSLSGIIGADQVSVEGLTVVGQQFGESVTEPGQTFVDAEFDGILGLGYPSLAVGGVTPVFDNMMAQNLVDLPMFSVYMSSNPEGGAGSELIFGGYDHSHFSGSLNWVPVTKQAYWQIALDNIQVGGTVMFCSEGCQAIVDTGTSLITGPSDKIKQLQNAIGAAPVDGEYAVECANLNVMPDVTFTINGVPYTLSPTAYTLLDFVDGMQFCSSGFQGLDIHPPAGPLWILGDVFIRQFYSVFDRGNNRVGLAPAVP
Protocol: as §1, §2, §3, §4, §5, §6

T1 sequence (P07339 65-412): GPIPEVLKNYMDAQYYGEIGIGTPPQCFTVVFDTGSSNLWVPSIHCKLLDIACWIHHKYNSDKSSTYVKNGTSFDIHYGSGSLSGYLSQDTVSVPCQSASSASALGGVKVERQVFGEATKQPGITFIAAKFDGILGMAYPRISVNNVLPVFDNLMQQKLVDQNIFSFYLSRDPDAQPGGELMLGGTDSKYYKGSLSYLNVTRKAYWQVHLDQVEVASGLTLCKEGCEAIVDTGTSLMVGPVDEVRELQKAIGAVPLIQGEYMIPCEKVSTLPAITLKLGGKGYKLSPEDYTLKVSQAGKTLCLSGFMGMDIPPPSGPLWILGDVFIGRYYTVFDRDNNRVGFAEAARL

Structure (SMILES): Cc1cccc(C)c1OCC(=O)N[C@@H](Cc1ccccc1)[C@@H](O)C[C@H](Cc1ccccc1)NC(=O)[C@H](C(C)C)N1CCCNC1=O [lopinovir]
- correlation of lipid abnormalities with plasma concentrations [1]: did not correlate

Structure (SMILES): CC(C)(C)NC(=O)[C@@H]1C[C@@H]2CCCC[C@@H]2CN1C[C@@H](O)[C@H](Cc1ccccc1)NC(=O)[C@H](CC(N)=O)NC(=O)c1ccc2ccccc2n1 [saquinavir]
- inhibition of cleavage of resistin by cathepsin D (cathepsin D; 24 hr at 37° C.): prevented
- association with HIV-1 protease inhibitor induced metabolic abnormalities [1]: known to be associated
- inhibition of cleavage of resistin by cathepsin E (cathepsin E; 24 hr at room temperature): prevented

- inhibition of cleavage of resistin by cathepsin D (cathepsin D; 24 hr at 37° C.): not
- inhibition of cleavage of resistin by cathepsin E (cathepsin E; 24 hr at room temperature): not
Structure (SMILES): Cc1c(O)cccc1C(=O)N[C@@H](CSc1ccccc1)[C@H](O)CN1C[C@H]2CCCC[C@H]2C[C@H]1C(=O)NC(C)(C)C [nelfinavir]
- association with HIV-1 protease inhibitor induced metabolic abnormalities [1]: are not

- concentration at which cleavage of resistin by cathepsin D was detectably inhibited (cathepsin D; 24 hr at 37° C., FIG. 2): 30 µM
- concentration at which cleavage of resistin by cathepsin D was detectably inhibited (cathepsin D; Example 1, FIG. 2, 24 hr at 37° C.): 30 µM
- concentration at which cathepsin D was fully inhibited (cathepsin D; Example 1, resistin cleavage): 100 µM
- concentration at which cathepsin D was fully inhibited (cathepsin D; resistin cleavage, 24 hr at 37° C.): 100 µM
- concentration at which cleavage of resistin by cathepsin E was detectably inhibited (cathepsin E; 24 hr at room temperature, FIG. 2): 10 µM
- concentration at which cleavage of resistin by cathepsin E was detectably inhibited (cathepsin E; Example 1, FIG. 2, 24 hr at room temperature): 10 µM
- concentration at which cathepsin E was fully inhibited (cathepsin E; Example 1, resistin cleavage): 30 µM
- concentration at which cathepsin E was fully inhibited (cathepsin E; resistin cleavage, 24 hr at room temperature): 30 µM
Structure (SMILES): CC(C)c1nc(CN(C)C(=O)N[C@H](C(=O)N[C@@H](Cc2ccccc2)C[C@H](O)[C@H](Cc2ccccc2)NC(=O)OCc2cncs2)C(C)C)cs1 [ritonavir]
- elevated plasma cholesterol and plasma triglyceride levels [1]: significantly more pronounced
- frequency of hypertriglyceridaemia [1]: more frequent
- hypercholesterolemia [1]: observed
- hypertriglyceridaemia [1]: severe hypertriglyceridaemia

- inhibition of cleavage of resistin by cathepsin D (cathepsin D; 24 hr at 37° C.): not detectably inhibited
- inhibition of cleavage of resistin by cathepsin E (cathepsin E; 24 hr at room temperature): not detectably inhibited
Structure (SMILES): COC(=O)N[C@H](C(=O)N[C@@H](Cc1ccccc1)[C@@H](O)CN(Cc1ccc(-c2ccccn2)cc1)NC(=O)[C@@H](NC(=O)OC)C(C)(C)C)C(C)(C)C [atazanavir]
- change in fasting LDL cholesterol, total cholesterol, and fasting triglycerides [1]: either no change or decreases

- inhibition of cleavage of resistin by cathepsin D (cathepsin D; 24 hr at 37° C.): not
- inhibition of cleavage of resistin by cathepsin E (cathepsin E; 24 hr at room temperature): not
Structure (SMILES): CC(C)(C)NC(=O)[C@@H]1CN(Cc2cccnc2)CCN1C[C@@H](O)C[C@@H](Cc1ccccc1)C(=O)N[C@H]1c2ccccc2C[C@H]1O [indinavir]
